From patent US11464771B2, “Bromodomain and extra-terminal protein inhibitor combination therapy” (CELGENE QUANTICEL RESEARCH, INC., priority 2016, dated 2022)
“Also recorded” adds a separate entry of the source.

Experiments:
[1] = test system: BR0869f ER-PR-Her2+ PDX-derived breast cancer model; test: 3-D Matrigel colony formation, BR0869f; format: cell-based; settings: Homo sapiens, 7 or 14 days
Experimental: The effect of Compound A on colony formation in four PDX-derived breast cancer models was assessed using a 3-D Matrigel-based in vitro culture system. Compound A was tested at concentrations ranging from either 0.008 μM to 5 μM or 0.0016 μM to 1 μM in 5-fold increments. Colony formation was assessed after 7 days or 14 days of treatment by quantifying colony numbers by microscopy. […] The overall mean for the three TNBC models was 0.11±0.04 μM.

CYP2B6 = CYP2B6 induction in hepatocytes; format: in vitro ADME; settings: up to 10 μM
From the text: Compound A has minimal potential to cause drug-drug interactions with co-administered drugs that are CYP substrates.

Structure (SMILES): Cn1cc(-c2cc(S(C)(=O)=O)ccc2OCC2CC2)c2ccccc2c1=O [Compound A, 4-[2-(cyclopropylmethoxy)-5-methylsulfonylphenyl]-2-methylisoquinolin-1-one]
- IC50 [1]: 120 ± 10 nM
- induction of CYP2B6 (CYP2B6): not an inducer; also recorded: did not induce
